Source: the SangsterLogP compilation

Q: With `CCCCCCCC1CC(C(=O)Nc2c(C(C)C)cccc2C(C)C)C(=O)O1` (stereo not given) as the compound, how does the logP read?
A: The logP was 4.72.

Q: With `CCCCCCCCCCCC(=O)CC(=O)Nc1c(OC)cc(OC)cc1OC` as the compound, how does the logP read?
A: Its logP is 5.02.

Q: Which logP does the source give for `CC(C)c1cccc(C(C)C)c1NC(=O)CC(=O)C(c1ccccc1)c1ccccc1` here?
A: The logP was 3.96.

Q: With `CC(C)c1cccc(C(C)C)c1NC(=O)CC(O)CC(c1ccccc1)c1ccccc1` (stereo not given) as the compound, how does the logP read?
A: Its logP is 4.01.

Q: With `CC(C)c1cccc(C(C)C)c1NC(=O)CC(=O)c1ccccc1` as the compound, how does the logP read?
A: Its logP is 2.87.

Q: Which logP does the source give for `CC(C)c1cccc(C(C)C)c1NC(=O)CC(CC(c1ccccc1)c1ccccc1)=NO` here?
A: Its logP is 3.93.

Q: With `CCCCCCCCCCCC(=O)C(C)(C)C(=O)Nc1c(OC)cc(OC)cc1OC` as the compound, how does the logP read?
A: The logP was 4.88.

Q: With `CC(C)c1cccc(C(C)C)c1NC(=O)CC(=O)CCCCCCCCCCO` as the compound, how does the logP read?
A: Its logP is 4.2.

Q: With `CC(C)c1cccc(C(C)C)c1NC(=O)CC(=O)C1(c2ccccc2)CCCC1` as the compound, how does the logP read?
A: The logP was 4.55.

Q: With `CCCCCCCCCCCC(=O)C(C)(C)C(=O)N(C)c1c(OC)cc(OC)cc1OC` as the compound, how does the logP read?
A: The logP was 6.67.
